According to EP4790048A1, “S1PR4 REGULATOR COMPOUND FOR AUTOIMMUNE DISEASE TREATMENT AND APPLICATION THEREOF” (Shengyuan Zetong (Shanghai) Pharmaceutical Co., Ltd, priority 2023, dated 2025):

Assays:
BALB/c mice [1] = assay: DSS-induced acute ulcerative colitis in mice (Example 6); type: in vivo; settings: for survival rate: 8 mice, model group 75%
Description: From Day 0 to Day 14 of the experiment, the mice were weighed daily and their blood and stool conditions were observed, scored and recorded according to the following table (Table 1). Random grouping was performed on Day 1, and modeling was conducted from Day 1 to Day 7. All groups except the Control group were given 3.5% DSS water daily. Re-grouping was performed on Day 8. The Control group and Model group received no medication and were given tap water; the other groups were administered intragastrically with 1 mg/kg, 3 mg/kg, 9 mg/kg, and SASP (Sulfasalazine or Salicylazosulfapyridine) 500 mg/kg, respectively. On Day 15, blood and colon samples were collected, colon length was measured, and a 1-2 cm segment of the colon was fixed with formaldehyde.
(§1) • BALB/c mice, male, 20-22 g • Dextran sulfate sodium MW: 36,000-50,000 (DSS) • 30 1 mg/kg, 3 mg/kg, 9 mg/kg, SASP (500 mg/kg) indicators were observed.
(§2) (1) Clinical Symptom Score: The mice were weighed daily and their blood and stool were observed during the experiment for DAI scoring, which was graded and recorded according to the following table (Table 1).
(§3) (2) After the experiment, the colon was removed, its length measured and weight recorded. The colon-to-body weight index (colon weight/body weight × 100%) and colon swelling rate (colon weight/length × 100%) were calculated.
(§4) Colonic tissue approximately 1 cm from the anal margin (0.5 cm) and ileocecal region tissue were collected for histopathological examination. After H&E staining, the tissues were scored under single-blind conditions to evaluate the level of distal colon inflammation and tissue damage; scoring was performed according to the Ameho criteria and calculated as follows: • Score 0: No abnormal findings in the texture. • Score 1: Mild inflammatory infiltration of the mucosa and/or submucosa (mixed with neutrophils), submucosal edema, punctate mucosal erosion, accompanied by capillary proliferation. The muscularis mucosae is intact. • Score 2: Changes of Score 1 account for more than 50%. • Score 3: Obvious inflammatory infiltration and edema (neutrophils are often predominant); ulcers usually penetrate the muscularis mucosae to reach the submucosa. There is little inflammatory cell infiltration in the muscularis propria and no muscle necrosis. • Score 4: Changes of Score 3 account for more than 50%. • Score 5: Large confluent ulcers with coagulative necrosis, massive neutrophil infiltration at the margins and few monocytes. Necrotic tissue penetrates the muscularis propria. • Score 6: Changes of Score 5 account for more than 50% of the specimen.
The fence function of Occludin separates the apical and basolateral sides of the epithelial cell plasma membrane, restricting the free flow of lipids on the cell membrane, facilitating the formation of cell polarity, maintaining the impermeability and rigidity of the intestinal mucosa, and preventing the entry of pathogenic microorganisms. The barrier function of Occludin can regulate the transport of small molecules and maintain tissue homeostasis. […]

BALB/c mice [2] = assay: DSS-induced chronic ulcerative colitis in mice (Example 6); type: in vivo
Source text: BALB/c mice were acclimatized for 7 days before the experiment. From Day 7 to Day 50 of the experiment, the mice were weighed daily and their blood and stool conditions were observed, scored and recorded according to the following table (Table 1). After random grouping, all groups except the Control group were given free access to 2-3% DSS solution for modeling from Day 7 to Day 14, while the Control group received normal drinking water during the same period. One cycle lasted 14 days and was repeated 3 times. Re-grouping was performed at the start of the final cycle to initiate drug administration. The Control group and Model group received no drug but the same solvent. The other groups were intragastrically administered 1 mg/kg, 3 mg/kg, 9 mg/kg, and SASP 500 mg/kg respectively. On Day 45, blood and colon samples were collected, colon length was measured, and a 1-2 cm colon segment was fixed with formaldehyde.
as §1, §2, §3, §4
The fence function of Occludin separates the apical and basolateral sides of the epithelial cell plasma membrane, restricting the free flow of lipids on the cell membrane, facilitating the formation of cell polarity, maintaining the impermeability and rigidity of the intestinal mucosa, and preventing the entry of pathogenic microorganisms. The barrier function of Occludin can regulate the transport of small molecules and maintain tissue homeostasis. The expression and distribution of related proteins are detected by immunohistochemistry.
During modeling, the body weight of mice in the control group increased steadily. In the model group, during the first modeling period, mice were given 3% DSS drinking water ad libitum for 7 days, followed by tap water ad libitum for 7 days. On Day 4 of modeling, the body weight of mice began to decrease generally, reaching the lowest point on Day 8, and then started to rise. During the second modeling period, mice were given 2% DSS drinking water ad libitum for 7 days, followed by tap water ad libitum for 7 days. […]

## CCc1cc(/C(C)=N/OCc2ccc(-c3ccccc3)c(C)c2)ccc1CN1CC[C@H](C(=O)O)C1 [Compound 30]
BALB/c mice [1]; 30 1 mg/kg intragastric from Day 8
  survival rate: 87.5%
BALB/c mice [1]; 30 1 mg/kg, p<0.05 vs Model group
  colon length: significantly inhibited DSS-induced colon shortening
BALB/c mice [1]; 30 3 mg/kg intragastric from Day 8
  survival rate: 87.5%
BALB/c mice [1]; 30 3 mg/kg, p<0.01 vs Model group
  colon length: significantly inhibited DSS-induced colon shortening
BALB/c mice [1]; 30 3 mg/kg, vs model group
  total DAI scores over 14 days: significantly lower
BALB/c mice [1]; 30 9 mg/kg intragastric from Day 8
  survival rate: 75%
BALB/c mice [1]; 30 at 3 mg/kg, SASP at 500 mg/kg, vs model group
  body weight recovery: faster body weight recovery with a greater rebound amplitude
BALB/c mice [1]; 30 at 9 mg/kg
  colon pathological changes (H&E staining): obvious inflammatory cell infiltration and reduced goblet cells
BALB/c mice [1]; 30 treatment groups, SASP 500 mg/kg, vs model group
  daily DAI score: decreased more rapidly
BALB/c mice [1]; Compound 30 1 mg/kg
  colon pathological changes (H&E staining): no obvious inflammatory cell infiltration was observed
BALB/c mice [1]; Compound 30 3 mg/kg
  colon pathological changes (H&E staining): no obvious inflammatory cell infiltration was observed
BALB/c mice [1]; vs Model group
  Occludin expression in colonic mucosa (immunohistochemistry): the expression of Occludin was increased
  Occludin protein in colon (Western blotting): increase the expression of Occludin
BALB/c mice [2]; 30 1 mg/kg
  body weight during administration: remained relatively stable during administration
BALB/c mice [2]; 30 3 mg/kg
  body weight during administration: remained relatively stable during administration
BALB/c mice [2]; 30 3 mg/kg, before and after administration, vs model group
  body weight change rate: significantly increased
BALB/c mice [2]; 30 3 mg/kg, vs model group
  total DAI scores of the administration for 14 days: significantly lower
BALB/c mice [2]; 30 at 1 mg/kg
  colon pathological changes (H&E staining): no obvious inflammatory cell infiltration was observed
BALB/c mice [2]; 30 at 3 mg/kg
  colon pathological changes (H&E staining): no obvious inflammatory cell infiltration was observed
BALB/c mice [2]; 30 treatment group, SASP 500 mg/kg, vs model group
  daily DAI score: decreased more rapidly
BALB/c mice [2]; 30 treatment groups (1, 3, 9 mg/kg), SASP 500 mg/kg, vs model group
  body weight recovery: recovered rapidly and increased substantially
BALB/c mice [2]; Compound 30 3 mg/kg, vs Model group
  colon length: significantly inhibited DSS-induced colon shortening
BALB/c mice [2]; Compound 30 9 mg/kg, vs Model group
  colon length: significantly inhibited DSS-induced colon shortening
BALB/c mice [2]; vs Model group
  Occludin expression in colonic mucosa (immunohistochemistry): the expression of Occludin was increased
